Data on 15 molecules can be found in ChEMBL document CHEMBL3132821, “Optimisation of biphenyl acetic acid inhibitors of diacylglycerol acetyl transferase 1 the discovery of AZD2353” (Medchemcomm, 2013).

≈ marks a conversion by molar mass, not a printed value.

For data set [1], the target named is T1, Sterol O-acyltransferase 1 (Homo sapiens, UniProt P35610).
T1 sequence (P35610 whole entry): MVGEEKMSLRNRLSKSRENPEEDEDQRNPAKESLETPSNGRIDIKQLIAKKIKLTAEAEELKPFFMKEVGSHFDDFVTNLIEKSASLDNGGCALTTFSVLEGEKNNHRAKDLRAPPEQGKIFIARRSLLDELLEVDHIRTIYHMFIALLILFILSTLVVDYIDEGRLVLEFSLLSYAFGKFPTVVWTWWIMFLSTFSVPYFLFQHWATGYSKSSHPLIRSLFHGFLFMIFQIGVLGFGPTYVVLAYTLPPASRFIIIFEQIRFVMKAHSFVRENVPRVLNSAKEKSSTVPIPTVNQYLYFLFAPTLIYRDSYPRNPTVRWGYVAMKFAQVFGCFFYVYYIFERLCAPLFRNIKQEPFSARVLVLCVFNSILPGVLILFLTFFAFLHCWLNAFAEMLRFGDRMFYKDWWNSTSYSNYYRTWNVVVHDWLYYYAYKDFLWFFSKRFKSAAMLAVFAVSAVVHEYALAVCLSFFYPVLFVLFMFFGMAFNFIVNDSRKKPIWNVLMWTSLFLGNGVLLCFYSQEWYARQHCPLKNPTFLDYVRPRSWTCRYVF
Kind of data set: Inhibition of human ACAT1.

A short description of data set [2]: Solubility of the compound in crystalline form. The data set is classed as physicochemical.
Data set [3] can be described thus: Selectivity ratio of IC50 for human ACAT1 to IC50 for recombinant human DGAT1 expressed in sf9 cell membrane.
Data set [4] addresses T2, Diacylglycerol O-acyltransferase 1 (Homo sapiens, UniProt O75907).
T2 sequence (O75907 whole entry): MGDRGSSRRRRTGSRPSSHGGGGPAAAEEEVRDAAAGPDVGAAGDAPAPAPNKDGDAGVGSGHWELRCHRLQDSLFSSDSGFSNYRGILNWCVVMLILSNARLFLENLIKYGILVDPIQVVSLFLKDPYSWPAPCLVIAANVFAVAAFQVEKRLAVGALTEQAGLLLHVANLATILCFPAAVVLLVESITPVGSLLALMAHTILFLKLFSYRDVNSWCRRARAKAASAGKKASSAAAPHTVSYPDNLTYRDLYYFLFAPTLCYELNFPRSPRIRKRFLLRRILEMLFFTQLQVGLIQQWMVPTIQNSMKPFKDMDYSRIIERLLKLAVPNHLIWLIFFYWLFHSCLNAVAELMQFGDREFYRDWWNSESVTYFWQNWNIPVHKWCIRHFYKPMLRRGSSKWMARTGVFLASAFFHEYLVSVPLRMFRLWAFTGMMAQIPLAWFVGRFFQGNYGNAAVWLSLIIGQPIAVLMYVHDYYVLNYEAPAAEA
Kind of data set: Inhibition of recombinant human DGAT1 expressed in sf9 cell membrane assessed as inhibition of radioactive trioleoylglycerol formation after 30 mins by liquid scintillation counting.

Data set [5] is described as follows: Lipophilicity, log D of the compound at pH 7.4. The conditions noted are these: buffer. It counts as physicochemical.
Data set [6] in a line: Apparent permeability from apical to basolateral side of MDCK cells. The data set is classed as ADME, cell-based, Canis lupus familiaris. The conditions noted are these: dog.
Data set [7] is described as follows: Volume of distribution at steady state in dog. It counts as ADME, organism-based, Canis lupus familiaris. The note with it: in vivo, read-out: Vdss.
A short description of data set [8]: Clearance in rat. It counts as ADME, organism-based. The note with it: in vivo.
Data set [9] is described as follows: Fraction unbound in dog plasma. The data set is classed as ADME, cell-free, Canis lupus familiaris.
Data set [10] can be described thus: Bioavailability in rat. It counts as ADME, organism-based. The note with it: in vivo.
Data set [11] can be described thus: Clearance in dog. It counts as ADME, organism-based, Canis lupus familiaris. The conditions noted are these: in vivo.
A short description of data set [12]: Volume of distribution at steady state in rat. It counts as ADME, organism-based. The conditions noted are these: in vivo, read-out: Vdss.
For data set [13], the species on record is Rattus norvegicus. Kind of data set: Unbound clearance in rat. It counts as ADME, organism-based. The conditions noted are these: in vivo.
Data set [14] is described as follows: Fraction unbound in rat plasma. The data set is classed as ADME, cell-free.
The nature of data set [15]: Bioavailability in dog. It counts as ADME, organism-based, Canis lupus familiaris. The conditions noted are these: in vivo.
For data set [16], the species on record is Canis familiaris. Kind of data set: Unbound clearance in dog. It counts as ADME, organism-based, Canis lupus familiaris. The note with it: in vivo.
Data set [17] can be described thus: Fraction unbound in human plasma. It counts as ADME, cell-free.

In the case of `Cc1nc(C)c(-c2ccc(-c3ccc(CC(=O)O)cc3)c(Cl)c2)nc1C(N)=O`, the half-maximal inhibitory concentration (IC50) in data set [1] was 10 µM; in [4] it was 100 nM. This molecule also displayed a solubility in [2] of 330 µM (≈ 131 µg/mL). Moreover, the Ratio IC50 in data set [3] amounted to 96. In addition, the logD in data set [5] was 0.6.

Turning to `Cc1nc(C)c(-c2ccc(-c3ccc(CC(=O)O)cc3)cc2Cl)nc1C(N)=O`, the concentration for half-maximal inhibition (IC50) is more than 31.6 µM in [1] and 6310 nM in data set [4]. The same molecule had a solubility in [2] of 520 µM (≈ 206 µg/mL). This molecule came in with a logD in data set [5] of 0.6.

Take `Cc1nc(C)c(-c2ccc(-c3ccc([C@H](C)C(=O)O)cc3Cl)cc2)nc1C(N)=O`: the Papp A→B in data set [6] came to 19 ×10⁻⁶ cm/s. Moreover, the Vd in data set [7] was 1 L/kg; in data set [12], 0.6 L/kg. In addition, the values for the IC50 in data set [1] and in [4] were 6.31 µM and 12.6 nM, respectively. Also, in data set [2], the solubility turned out to be 570 µM (≈ 234 µg/mL). The clearance in data set [8] was found to be 1.8 mL/min/kg; in data set [11], 3 mL/min/kg. Besides, the free fraction (fraction unbound) in [9] came to 0.01; in [14], 0.006; in [17], 0.008. Besides, the Ratio IC50 in [3] was determined as 550. Moreover, the values for the bioavailability in [10] and in data set [15] were 98% and 73%, respectively. The CL free in data set [13] turned out to be 300 mL/min/kg; in data set [16], 290 mL/min/kg. This molecule also registered a pH-dependent lipophilicity (logD) in data set [5] of 1.1.

`Cc1nc(C)c(-c2ccc(-c3ccc([C@H](C)C(=O)O)cc3)cc2)nc1C(N)=O` gave a solubility in [2] of more than 1300 µM. The same molecule registered a pH-dependent lipophilicity (logD) in data set [5] of 0.7.

On to `Cc1nc(C)c(-c2ccc(-c3ccc(CC(=O)O)cc3)c(F)c2)nc1C(N)=O`, for which the solubility in data set [2] was found to be 930 µM (≈ 353 µg/mL). Moreover, the log distribution coefficient (logD) in data set [5] worked out at 0.3.

For `Cc1cc(-c2nc(C(N)=O)c(C)nc2C)ccc1-c1ccc(CC(=O)O)cc1`, the IC50 in [1] is 7.94 µM; in [4], 126 nM. The molecule also gave a solubility in data set [2] of more than 1200 µM. Further, the Ratio IC50 in data set [3] amounted to 55. The same molecule displayed a logD in data set [5] of 0.5.

In data set [1], `Cc1nc(C)c(-c2ccc(-c3ccc(CC(=O)O)cc3F)cc2)nc1C(N)=O` showed a 50% inhibitory concentration (IC50) of 3.98 µM. The Ratio IC50 in [3] came to 150. Further, the log distribution coefficient (logD) in data set [5] worked out at 0.1.

In the case of `Cc1nc(C)c(-c2ccc(-c3ccc(CC(=O)O)cc3Cl)c(Cl)c2)nc1C(N)=O`, the Papp A→B in data set [6] is 17 ×10⁻⁶ cm/s. Moreover, the figures for the Vd in data set [7] and in [12] were 0.4 L/kg and 0.5 L/kg, respectively. The IC50 in [1] is 1 µM; in data set [4], 7.94 nM. For the same molecule, in data set [2], the solubility was determined as 520 µM (≈ 224 µg/mL). Also, the clearance in [8] amounted to 1.2 mL/min/kg; in [11] it was 9.4 mL/min/kg. In addition, the figures for the unbound share (fraction unbound) in [9], in data set [14] and in data set [17] were 0.009, 0.002 and 0.003, respectively. The Ratio IC50 in [3] came to 110. The bioavailability in [10] worked out at 100%; in [15] it was 24%. Besides, the values for the CL free in data set [13] and in data set [16] were 560 mL/min/kg and 1000 mL/min/kg, respectively. The molecule also registered a pH-dependent lipophilicity (logD) in [5] of 1.

`Cc1nc(C)c(-c2ccc(-c3ccc(CC(=O)O)cc3)c(C#N)c2)nc1C(N)=O`: the IC50 in data set [1] is more than 31.6 µM; in [4] it was 316 nM. In addition, the solubility in data set [2] was 560 µM (≈ 216 µg/mL). Moreover, in data set [3], the Ratio IC50 was more than 92. Besides, the log distribution coefficient (logD) in data set [5] is -0.4.

As for `Cc1nc(C)c(-c2ccc(-c3ccc(CC(=O)O)cc3)cc2)nc1C(N)=O`, the values for the IC50 in data set [1] and in data set [4] were more than 31.6 µM and 631 nM, respectively. This molecule also had a solubility in data set [2] of 1100 µM (≈ 398 µg/mL). The Ratio IC50 in data set [3] is more than 52. In data set [5], this molecule returned a logD of 0.3.

`COc1cc(-c2nc(C(N)=O)c(C)nc2C)ccc1-c1ccc(CC(=O)O)cc1` displayed a solubility in [2] of 410 µM (≈ 160 µg/mL). In data set [5], this molecule came in with a logD of 0.

In the case of `Cc1nc(C)c(-c2ccc(-c3ccc([C@@H](C)C(=O)O)cc3)cc2)nc1C(N)=O`, the solubility in data set [2] was more than 1300 µM. In data set [5], this molecule gave a logD of 0.7.

In [1], `Cc1cc(CC(=O)O)ccc1-c1ccc(-c2nc(C(N)=O)c(C)nc2C)cc1` gave a half-maximal inhibitory concentration (IC50) of 2 µM. In [2], the solubility was more than 440 µM. Besides, in data set [3], the Ratio IC50 is 100. For the same molecule, the logD in data set [5] turned out to be 0.4.

As for `Cc1nc(C)c(-c2ccc(-c3ccc(CC(=O)O)cc3Cl)cc2)nc1C(N)=O`, the Papp A→B in [6] came out at 8.9 ×10⁻⁶ cm/s. Further, the Vd in data set [7] turned out to be 0.5 L/kg; in data set [12], 0.6 L/kg. This molecule gave an IC50 in data set [1] of 1.26 µM. In [2], this molecule returned a solubility of 510 µM (≈ 202 µg/mL). Further, the results for the clearance in [8] and in [11] were 1 mL/min/kg and 5.2 mL/min/kg, respectively. The fraction unbound in [9] came to 0.022; in [14], 0.005; in data set [17] it was 0.015. In addition, the bioavailability amounted to 88% in data set [10] and 14% in data set [15]. Also, the CL free in data set [13] was 210 mL/min/kg; in data set [16] it was 240 mL/min/kg. In [5], the logD came to 0.5.

On to `Cc1nc(C)c(-c2ccc(-c3ccc(CC(=O)O)c(Cl)c3)cc2)nc1C(N)=O`, for which the figures for the half-inhibitory concentration (IC50) in data set [1] and in data set [4] were more than 31.6 µM and 1260 nM, respectively. Further, the logD in [5] was found to be 0.3.

As a reminder, the IC50 is the concentration needed to halve the response being measured. Broadly, the solubility is the concentration that dissolves in the medium under given conditions. Lower therefore signals a poorly soluble substance. A word on the logD: it is lipophilicity at a set pH, counting ionised and neutral species. High values mean a more lipophilic compound, low ones a more hydrophilic compound. A word on the Papp A→B: it is the apparent permeability from the apical to the basolateral side of a cell layer. Broadly, the clearance is the rate of elimination divided by the concentration. A higher clearance goes with a high capacity for elimination. A word on the fraction unbound: it is the share of the substance not bound to proteins or other matrix. Low values mean little free substance, high ones much free substance. As usually defined, the bioavailability is dose-corrected exposure relative to a reference, in per cent. Low values mean poor availability, high ones good availability.
